From patent US6613718B2, “Aryl ether derivatives and processes for their preparation and herbicidal and desiccant compositions containing them” (Ishihara Sangyo Kaisha, Ltd., priority 2001, dated 2003)

Columns and labels:
Assay type in all cases: in vivo
[1] = tested on: large crabgrass (Digitaria sanguinalis, DIGSA); assay: Pre-emerge greenhouse herbicide activity screening, phytotoxicity rating; settings: 14 days after application
How it was run: (§1)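 Plants grown in sandy loam pots received acetone solutions of compound by moving-nozzle track sprayer, 15–1000 g ai/ha. In post-emergence runs the foliage was at the 2-3 leaf stage and spray contained 0.25% v/v non-ionic surfactant. Damage was assessed visually after 14 days (0-100).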

[2] = tested on: common ragweed (Ambrosia artemisiifolia L., AMBEL); assay: as above; settings: 14 days after application
How it was run: as §1

[3] = tested on: lambsquarters (Chenopodium album, CHEAL); assay: as above; settings: 14 days after application
How it was run: as §1

[4] = tested on: green foxtail (Setaria viridis, SETVI); assay: as above; settings: 14 days after application
How it was run: as §1

[5] = tested on: ivyleaf morningglory (Ipomoea hederacea, IPOHE); assay: as above; settings: 14 days after application
How it was run: as §1

[6] = tested on: velvetleaf (Abutilon theophrasti, ABUTH); assay: as above; settings: 14 days after application
How it was run: as §1

[7] = tested on: barnyardgrass (Echinochloa crus-galli, ECHCG); assay: as above; settings: 14 days after application
How it was run: as §1

[8] = tested on: redroot pigweed (Amaranthus retroflexus, AMARE); assay: as above; settings: 14 days after application
How it was run: as §1

[9] = tested on: johnsongrass (Sorghum halepense, SORHA); assay: as above; settings: 14 days after application
How it was run: as §1

[10] = tested on: sicklepod (Cassia obtusifolia, CASOB); assay: as above; settings: 14 days after application
How it was run: as §1

[11] = tested on: large crabgrass (Digitaria sanguinalis, DIGSA); assay: Post-emerge greenhouse herbicide activity screening, phytotoxicity rating; settings: 14 days after application
How it was run: as §1

[12] = tested on: common ragweed (Ambrosia artemisiifolia L., AMBEL); assay: as above
How it was run: as §1

[13] = tested on: lambsquarters (Chenopodium album, CHEAL); assay: as above
How it was run: as §1

[14] = tested on: green foxtail (Setaria viridis, SETVI); assay: as above
How it was run: as §1

[15] = tested on: ivyleaf morningglory (Ipomoea hederacea, IPOHE); assay: as above; settings: 14 days after application
How it was run: as §1

[16] = tested on: velvetleaf (Abutilon theophrasti, ABUTH); assay: as above; settings: 14 days after application
How it was run: as §1

[17] = tested on: barnyardgrass (Echinochloa crus-galli, ECHCG); assay: as above; settings: 14 days after application
How it was run: as §1

[18] = tested on: redroot pigweed (Amaranthus retroflexus, AMARE); assay: as above
How it was run: as §1

[19] = tested on: johnsongrass (Sorghum halepense, SORHA); assay: as above; settings: 14 days after application
How it was run: as §1

[20] = tested on: sicklepod (Cassia obtusifolia, CASOB); assay: as above
How it was run: as §1

[21] = tested on: soybean (Glycine max L., var. Pella 86, SOY); assay: Pre-emerge greenhouse screening, crop safety (phytotoxicity rating); settings: 14 days after application
How it was run: as §1

[22] = tested on: field corn (Zea mays L., var. Dekalb 535, CORN); assay: as above; settings: 14 days after application
How it was run: as §1

[23] = tested on: upland rice (Oryza sp., var.Tebonnet, RICE); assay: as above; settings: 14 days after application
How it was run: as §1

[24] = tested on: soybean (Glycine max L., var. Pella 86, SOY); assay: Post-emerge greenhouse screening, crop safety (phytotoxicity rating); settings: 14 days after application
How it was run: as §1

[25] = tested on: upland rice (Oryza sp., var.Tebonnet, RICE); assay: as above; settings: 14 days after application
How it was run: as §1

[26] = tested on: field corn (Zea mays L., var. Dekalb 535, CORN); assay: Post-emerge greenhouse screening, crop safety / corn selectivity (phytotoxicity rating); settings: for CORN crop damage, phytotoxicity rating (0-100 scale): 14 days after application
How it was run: as §1

[27] = 125 g ai/ha, 14 days after application
[28] = 250 g ai/ha, 14 days after application

Fc1cc(Cl)c(Oc2ncccn2)cc1-c1nn2c(c1Br)CCCC2 [Compound 6-2]
DIGSA phytotoxicity rating (0-100 scale) ([1]; 125 g ai/ha): 100
DIGSA phytotoxicity rating (0-100 scale) ([1]; 250 g ai/ha): 100
AMBEL phytotoxicity rating (0-100 scale) ([2]; 125 g ai/ha): 99
AMBEL phytotoxicity rating (0-100 scale) ([2]; 250 g ai/ha): 100
CHEAL phytotoxicity rating (0-100 scale) ([3]; 125 g ai/ha): 100
CHEAL phytotoxicity rating (0-100 scale) ([3]; 250 g ai/ha): 100
SETVI phytotoxicity rating (0-100 scale) ([4]; 125 g ai/ha): 100
SETVI phytotoxicity rating (0-100 scale) ([4]; 250 g ai/ha): 100
IPOHE phytotoxicity rating (0-100 scale) ([5]; 125 g ai/ha): 85
IPOHE phytotoxicity rating (0-100 scale) ([5]; 250 g ai/ha): 100
ABUTH phytotoxicity rating (0-100 scale) ([6]; 125 g ai/ha): 100
ABUTH phytotoxicity rating (0-100 scale) ([6]; 250 g ai/ha): 100
ECHCG phytotoxicity rating (0-100 scale) ([7]; 125 g ai/ha): 99
ECHCG phytotoxicity rating (0-100 scale) ([7]; 250 g ai/ha): 100
AMARE phytotoxicity rating (0-100 scale) ([8]; 125 g ai/ha): 100
AMARE phytotoxicity rating (0-100 scale) ([8]; 250 g ai/ha): 100
SORHA phytotoxicity rating (0-100 scale) ([9]; 125 g ai/ha): 100
SORHA phytotoxicity rating (0-100 scale) ([9]; 250 g ai/ha): 100
CASOB phytotoxicity rating (0-100 scale) ([10]; 125 g ai/ha): 100
CASOB phytotoxicity rating (0-100 scale) ([10]; 250 g ai/ha): 100
DIGSA phytotoxicity rating (0-100 scale) ([11]; 125 g ai/ha): 75
DIGSA phytotoxicity rating (0-100 scale) ([11]; 250 g ai/ha): 80
AMBEL phytotoxicity rating (0-100 scale) ([12]; 31.3 g ai/ha): 80
AMBEL phytotoxicity rating (0-100 scale) ([12]; 62.5 g ai/ha): 85
AMBEL phytotoxicity rating (0-100 scale) [12, 27]: 85
AMBEL phytotoxicity rating (0-100 scale) [12, 28]: 90
CHEAL phytotoxicity rating (0-100 scale) ([13]; 31.3 g ai/ha): 100
CHEAL phytotoxicity rating (0-100 scale) ([13]; 62.5 g ai/ha): 100
CHEAL phytotoxicity rating (0-100 scale) [13, 27]: 100
CHEAL phytotoxicity rating (0-100 scale) [13, 28]: 100
SETVI phytotoxicity rating (0-100 scale) ([14]; 31.3 g ai/ha): 100
SETVI phytotoxicity rating (0-100 scale) ([14]; 62.5 g ai/ha): 100
SETVI phytotoxicity rating (0-100 scale) [14, 27]: 100
SETVI phytotoxicity rating (0-100 scale) [14, 28]: 100
IPOHE phytotoxicity rating (0-100 scale) ([15]; 125 g ai/ha): 100
IPOHE phytotoxicity rating (0-100 scale) ([15]; 250 g ai/ha): 100
ABUTH phytotoxicity rating (0-100 scale) ([16]; 125 g ai/ha): 100
ABUTH phytotoxicity rating (0-100 scale) ([16]; 250 g ai/ha): 100
ECHCG phytotoxicity rating (0-100 scale) ([17]; 125 g ai/ha): 90
ECHCG phytotoxicity rating (0-100 scale) ([17]; 250 g ai/ha): 95
AMARE phytotoxicity rating (0-100 scale) ([18]; 31.3 g ai/ha): 100
AMARE phytotoxicity rating (0-100 scale) ([18]; 62.5 g ai/ha): 100
AMARE phytotoxicity rating (0-100 scale) [18, 27]: 100
AMARE phytotoxicity rating (0-100 scale) [18, 28]: 100
SORHA phytotoxicity rating (0-100 scale) ([19]; 125 g ai/ha): 80
SORHA phytotoxicity rating (0-100 scale) ([19]; 250 g ai/ha): 95
CASOB phytotoxicity rating (0-100 scale) ([20]; 31.3 g ai/ha): 100
CASOB phytotoxicity rating (0-100 scale) ([20]; 62.5 g ai/ha): 100
CASOB phytotoxicity rating (0-100 scale) [20, 27]: 100
CASOB phytotoxicity rating (0-100 scale) [20, 28]: 100
SOY crop damage, phytotoxicity rating (0-100 scale) ([21]; 125 g ai/ha): 25
SOY crop damage, phytotoxicity rating (0-100 scale) ([21]; 250 g ai/ha): 40
CORN crop damage, phytotoxicity rating (0-100 scale) ([22]; 125 g ai/ha): 20
CORN crop damage, phytotoxicity rating (0-100 scale) ([22]; 250 g ai/ha): 40
RICE crop damage, phytotoxicity rating (0-100 scale) ([23]; 125 g ai/ha): 60
RICE crop damage, phytotoxicity rating (0-100 scale) ([23]; 250 g ai/ha): 75
SOY crop damage, phytotoxicity rating (0-100 scale) ([24]; 125 g ai/ha): 99
SOY crop damage, phytotoxicity rating (0-100 scale) ([24]; 250 g ai/ha): 99
RICE crop damage, phytotoxicity rating (0-100 scale) ([25]; 125 g ai/ha): 95
RICE crop damage, phytotoxicity rating (0-100 scale) ([25]; 250 g ai/ha): 98
CORN selectivity, phytotoxicity rating (0-100 scale) ([26]; 31.3 g ai/ha): 3
CORN selectivity, phytotoxicity rating (0-100 scale) ([26]; 62.5 g ai/ha): 10
CORN crop damage, phytotoxicity rating (0-100 scale) ([26]; 125 g ai/ha): 15
CORN crop damage, phytotoxicity rating (0-100 scale) ([26]; 250 g ai/ha): 15
